Measured values: paper PMC10536132, “Arginine Gemini-Based Surfactants for Antimicrobial and Antibiofilm Applications: Molecular Interactions, Skin-Related Anti-Enzymatic Activity and Cytotoxicity” (Molecules, 2023)
Like-named read-outs stand apart in the source and are kept apart here. Marks after values point to notes of the source that are not given here.

What was measured:
[1] = Cell viability, NRU assay; type: cell-based, human; settings: human, HaCaT cells (immortal human keratinocytes); NRU, HaCaT, surfactant in solution at 35.6 µg/mL, 24 h; read-out: cellular viability
Procedure: (§1) The immortal human keratinocyte (HaCaT) and the squamous cell carcinoma (A431) were obtained from Celltec, University of Barcelona. The cells were grown in DMEM medium (4.5 g/L glucose) supplemented with 10% (v/v) FBS, 2 mM L-glutamine, 100 U/mL of penicillin and 100 μg/mL of streptomycin at 37 °C under 5% CO2. Cells were routinely cultured in 75 cm^2 culture flasks and were trypsinized using trypsin-EDTA when reached approximately 80% of confluence.
(§2) HaCaT cells (1 × 10^5 cells/mL) and A431 cells (5 × 10^4 cells/mL) were grown at the defined densities into the central 60 wells of a 96-well microplate. Cells were incubated for 24 h under 5% CO2 at 37 °C. The medium was then removed and the cells were incubated with the surfactants (100 μL), previously diluted 1:1 (v/v), reaching a concentration of […] in DMEM medium supplemented with 5% FBS using two different colorimetric methods for quantification, as follows.
(§3) The accumulation of the neutral red dye in the lysosomes of viable, undamaged cells constitutes the basis of the neutral red uptake (NRU) assay. After the cells were incubated for 24 h with the corresponding systems at 35.6 µg/mL, the medium was removed and the surfactants´ solutions were incubated for 3 h with the NRU dye solution (50 μg/mL) dissolved in the medium without FBS and phenol red (Lonza). Cells were then washed with sterile PBS, followed by the addition of 100 μL of a solution containing 50% ethanol absolute and 1% acetic acid in distilled water to extract the non-adhered dye. The microplates were then stirred for 5 min at 25 °C to promote the dissolution. Finally, the absorbance of the resulting solutions was measured at λ = 550 nm using a Bio-Rad 550 microplate reader (Hercules, CA, USA).

[2] = design: method as in doi:10.1021/la981295l; settings: cited from earlier work
[3] = design: method as in doi:10.1021/la981295l; settings: cited from earlier work; remark: listed apart in the source
[4] = design: method as in doi:10.1021/la981295l; settings: cited from earlier work; remark: listed apart in the source
[5] = Apparent pKa by direct titration with NaOH; type: physicochemical; settings: aqueous solution, concentration above the minimum aggregation concentration; pH at semi-equivalence point
Procedure: In order to determine the ionization state of these gemini surfactants at the pH used to investigate their biological properties, the apparent acid pKa was determined for each of them. The pKap value has been determined by means of a direct titration with NaOH of an aqueous solution of each compound. The surfactant concentrations used were in all cases higher than the minimum aggregation concentration, thus avoiding possible deviations in the pK value due to the monomer–aggregate balance. The pKap values can be estimated from the pH at the semi-equivalence point that is reached when the molar ratio of protonated and non-protonated species is 1:1. In these conditions, we have that the pH = pKa.
The pKa value of each compound has been determined by means of a direct titration with NaOH of an aqueous solution of each compound. The pH was measured using the pH electrode Thermo Electron Corporation ORION 8103SC and the temperature was controlled by a thermostatic bath, Heto CBN 8-30. The pKa values can be estimated from the pH at the semi-equivalence point, which contains a 1:1 molar ratio of protonated and non-protonated species; at this point, pH = pKap.

[6] = Cell viability, NRU assay; type: cell-based; settings: human, A431 cells (squamous cell carcinoma), A431, surfactant in solution at 35.6 µg/mL, read-out: cellular viability
Procedure: as §1, §2, §3

[7] = tested on: bovine hyaluronidase; experiment: Hyaluronidase inhibitory activity; type: biochemical; settings: negative inhibition values
Procedure: The hyaluronidase inhibitory activity was performed according to the method used by Altinyay et al. with some modifications. Briefly, a work solution containing bovine hyaluronidase (7900 units/mL) in 0.1 M acetate buffer (pH 3.6) was prepared. Fifty microliters of the work solution were mixed 1:1 with the surfactants’ solution in 5% DMSO. For the negative control, 50 μL of 5% DMSO was used, while EGCG was used as positive control. After 20 min of incubation at 37 °C, 50 μL of calcium chloride (12.5 mM) was added to the mixture and again incubated for 20 min at 37 °C. At that point, 250 μL sodium hyaluronate (1.2 mg/mL) was added and incubated for 40 min at 37 °C. After incubation, the mixture was treated with 50 μL of 0.4 M NaOH and 100 μL of 0.2 M sodium borate and then incubated for 3 min in a boiling water bath. After cooling to room temperature, 1.4 mL of p-dimethylaminobenzaldehyde solution was added to the reaction mixture, being further incubated at 37 °C for 20 min. The resulting colored solution was measured at λ = 585 nm (PerkinElmer-Lambda 35, Brazil). The hyaluronidase inhibitory activity of each sample was calculated according to the following formula:(3) Hyaluronidase inhibitory activity %=A1−A2/A1×100 where A1 and A2 represent the absorbance in the absence and presence of the testing sample, respectively.

[8] = target: porcine pancreatic elastase (Sus scrofa, UniProt P00772); experiment: Elastase inhibitory assay; type: biochemical; settings: 40 µL of 1000 µg/mL stock; EGCG 250 μM
porcine pancreatic elastase, sequence (P00772 27-266): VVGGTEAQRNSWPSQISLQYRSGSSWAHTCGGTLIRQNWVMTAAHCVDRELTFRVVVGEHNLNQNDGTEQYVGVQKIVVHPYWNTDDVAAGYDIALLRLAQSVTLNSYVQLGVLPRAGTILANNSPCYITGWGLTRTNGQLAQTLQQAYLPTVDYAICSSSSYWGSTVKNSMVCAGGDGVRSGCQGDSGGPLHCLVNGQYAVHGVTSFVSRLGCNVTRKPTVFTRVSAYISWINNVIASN
Procedure: The elastase inhibition was tested according to the method described by […] et al.. First, a stock solution of each surfactant at 1000 μg/mL was prepared in sterile ultrapure water. A stock solution of porcine pancreatic elastase at 3.33 mg/mL in sterile ultrapure water was also prepared. The substrate […] (Ala) 3-p-nitroanilide was dissolved in 0.2 mM Tris-HCl buffer solution (pH 8.0). The samples (40 μL) were then diluted and incubated together with the enzyme for 15 min prior to the substrate addition. Negative control was sterile ultrapure water, while EGCG (250 μM or 0.114 mg/mL) was used as the positive control. The absorbance at λ = 410 nm was measured immediately after the substrate addition and continuously during the next 2 h using an Elx800 Microplate Reader (Biotek®). […] The anti-elastase activity (in %), determined in triplicate, was calculated according to the following equation:(2) Elastase inhibitory activity %=A1-A2/A1×100 where A1 and A2 represent the absorbance in the absence and presence of the testing samples, respectively.

CCCCCCCCCCCC(=O)NC(CCCNC(=N)N)C(=O)NCCCCCCCCCNC(=O)C(CCCNC(=N)N)NC(=O)CCCCCCCCCCC (stereo not drawn) [C9(LA)2, Bis (N^α-lauroyl arginine 1,3-nonane) diamide]
viability at 24 h, 35.6 µg/mL [1]: 60.7% | CMC (mM) Fluorescence [2]: 0.3 * mM | CMC (mM) Conductivity [3]: 0.3 * mM | CMC (mM) Surface Tension [4]: 0.003 * mM | γcmc ([4]; surface tension at the cmc): 34 * mN/m | pKap [5]: 9.4 | viability at 24 h, 35.6 µg/mL [6]: 60.7% | increase of hyaluronidase enzymatic activity [7]: 29.9% | anti-elastase activity (inhibition) [8]: 15.9%
